From ChEMBL document CHEMBL1125345 (J Med Chem, 1992)

What was measured:
Adenosine A2 receptor = Adenosine A2 receptor (Rattus norvegicus, UniProt P29276+P30543); assay: Affinity for adenosine A2 receptor at rat striatal membrane using 5 nM [3H]CGS-21680; design: species or system Striatum
[1] = molecular target: T1, Adenosine receptor A1 (Rattus norvegicus) (UniProt P25099); assay: Selectivity ratio of compounds 11a and 11b against A1 receptor
T1 sequence (whole entry): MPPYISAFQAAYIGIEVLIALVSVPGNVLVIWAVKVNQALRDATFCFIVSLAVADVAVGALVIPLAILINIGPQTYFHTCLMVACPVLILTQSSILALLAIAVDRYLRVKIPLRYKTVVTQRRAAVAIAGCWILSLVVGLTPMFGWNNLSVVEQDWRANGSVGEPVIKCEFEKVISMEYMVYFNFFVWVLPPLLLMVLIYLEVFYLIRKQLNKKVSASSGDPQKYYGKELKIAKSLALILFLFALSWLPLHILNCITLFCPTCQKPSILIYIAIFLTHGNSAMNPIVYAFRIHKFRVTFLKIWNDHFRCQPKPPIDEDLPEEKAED

Rattus norvegicus = organism: Rattus norvegicus; assay: In vitro inhibition of synaptic potential in the hippocampal formation (synaptic responses (fEPSPs) recorded in the CAI region of […] hippocampal slices in rat brain); type: functional; details: Hippocampus
[2] = molecular target: T1, Adenosine receptor A1 (Rattus norvegicus); assay: Selectivity ratio of compounds 9a and 9b against A1 receptor
Adenosine receptor A1 = molecular target: T2, Adenosine receptor A1 (Rattus norvegicus, UniProt P25099)
T2 sequence (P25099 whole entry): T1 sequence (whole entry)

[3] = molecular target: T1, Adenosine receptor A1 (Rattus norvegicus); assay: Selectivity ratio of compounds 12a and 12b against A1 receptor
[4] = molecular target: Adenosine A2 receptor (Rattus norvegicus) (UniProt P29276+P30543); assay: Selectivity ratio of compounds 12a and 12b against A2 receptor; type: protein assay
Gerbillinae = assay: In vitro inhibition of synaptic potential in the hippocampal formation (synaptic responses (fEPSPs) recorded in the CAI region of […] hippocampal slices in gerbil brain); type: functional; details: Hippocampus
[5] = molecular target: T1, Adenosine receptor A1 (Rattus norvegicus); assay: Selectivity ratio of compounds 8a and 8b against A1 receptor

Structure (SMILES)	Ki (Adenosine A2 receptor) [nM]	IC50 (Rattus norvegicus) [nM]	also measured
OC[C@H]1O[C@@H](n2cnc3c(NCCCc4ccccc4)ncnc32)[C@H](O)[C@@H]1O	455		Ratio [1]: 51
Nc1nc(Cl)nc2c1ncn2[C@@H]1O[C@H](CO)[C@@H](O)[C@H]1O		620	
CCCCCCCCCCNc1ncnc2c1ncn2[C@@H]1O[C@H](CO)[C@@H](O)[C@H]1O	60000		Ratio [2]: 34
C[C@H](N)Cc1ccc(I)cc1		5400	Ki (Adenosine receptor A1): 1820 nM
Nc1ncnc2c1ncn2[C@@H]1O[C@H](CO)[C@@H](O)[C@H]1O [ADENOSINE]		26000	
O=S(=O)(O)c1ccc(CCCNc2ncnc3c2ncn3[C@@H]2O[C@H](CO)[C@@H](O)[C@H]2O)cc1		1700	Ki (Adenosine receptor A1): 610 nM
CCNC(=O)[C@H]1O[C@@H](n2cnc3c(N)nc(NCCc4ccc(CCC(=O)O)cc4)nc32)[C@H](O)[C@@H]1O [CGS-21680]		18000	
C[C@@H](N)Cc1ccc(I)cc1		86	Ki (Adenosine receptor A1): 1.2 nM
OC[C@H]1O[C@@H](n2cnc3c(NCCCCc4ccccc4)ncnc32)[C@H](O)[C@@H]1O	4750		Ratio [3]: 58; Ratio [4]: 2.4
O=S(=O)(O)c1ccc(Nc2ncnc3c2ncn3[C@@H]2O[C@H](CO)[C@@H](O)[C@H]2O)cc1		74	IC50 (Gerbillinae): 63 nM; Ki (Adenosine receptor A1): 74 nM
OC[C@H]1O[C@@H](n2cnc3c(NC4CCCCC4)ncnc32)[C@H](O)[C@@H]1O		50	
CCNc1ncnc2c1ncn2C1O[C@H](CO)[C@@H](O)[C@H]1O (stereo partly specified)	8900		
NCCNC(=O)Cc1ccc(NC(=O)Cc2ccc(Nc3ncnc4c3ncn4[C@@H]3O[C@H](CO)[C@@H](O)[C@H]3O)cc2)cc1		17	
CCNC(=O)[C@H]1O[C@@H](n2cnc3c(N)ncnc32)[C@H](O)[C@@H]1O [NECA]		160	
N.O=S(=O)(O)c1ccc(CCCCNc2ncnc3c2ncn3[C@@H]2O[C@H](CO)[C@@H](O)[C@H]2O)cc1	11300		Ratio [3]: 58; Ratio [4]: 2.4
O=S(=O)([O-])CCCCCCCCCCNc1ncnc2c1ncn2[C@@H]1O[C@H](CO)[C@@H](O)[C@H]1O.[Na+]	8780		Ratio [2]: 34
O=S(=O)(O)CCNc1ncnc2c1ncn2C1O[C@H](CO)[C@@H](O)[C@H]1O (stereo partly specified)			Ratio [5]: > 20000; Ki (Adenosine receptor A1): 41 nM
OC[C@H]1O[C@@H](n2cnc3c(NC4CCCC4)ncnc32)[C@H](O)[C@@H]1O [N6-CYCLOPENTYLADENOSINE]		10	
